This note sets out measurements from patent US20240398805A1, “QUINAZOLINE DERIVED COMPOUNDS AS EGFR INHIBITORS AND THEIR USES THEREOF” (ACCUTAR BIOTECHNOLOGY INC., priority 2021, published 2024).

What all share (assay type): cell-based
The test system of one test is HCC827 cells. As to the kind of experiment: Cell growth inhibition (CellTiter-Glo, 3 days) in HCC827. The conditions noted are these: Homo sapiens, 72 h, 3 days after administration. A digest of the protocol:
(§1)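 HCC827 cells in RPMI/10% FBS and A431 cells in DMEM/10% FBS were seeded at 5000 cells/well and left overnight. Compound was then added over a concentration range for 3 days of incubation, and viability was read by CellTiter-Glo luminescence.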
(ATP-based viability assays read luminescence as a measure of living cells.)

Test [1] concerns HCC827-SVD cells (human EGFR exon 20 insertion mutant D770_N771 insSVD). As to the kind of experiment: Cell growth inhibition (CellTiter-Glo, 3 days) in HCC827-SVD. As to conditions: 72 h, 3 days after administration. A digest of the protocol:
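HCC827 cells carrying lentiviral codon-optimized EGFR D770_N771 insSVD, with endogenous EGFR knocked out by CRISPR (single clone), seeded at 5000 cells/well in RPMI with 10% FBS. Viability read by CellTiter-Glo luminescence.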

Test [2] relates to HCC827-ASV cells (human EGFR exon 20 insertion mutant A769_D770insASV). As to the kind of experiment: Cell growth inhibition (CellTiter-Glo, 3 days) in HCC827-ASV. The conditions noted are these: 72 h, 3 days after administration. The procedure, abridged:
(§2)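 HCC827 cells lentivirally transduced with codon-optimized ASV or YVMA insertion mutants were seeded at 5000 cells/well in RPMI with 10% FBS and incubated overnight. Compound was added at various concentrations from a 10× stock in medium, with 3 days' incubation. Viability read by CellTiter-Glo luminescence.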

In test [3] the test system is HCC827-YVMA cells (human ERBB2 exon20 insertion mutant A775_G776ins YVMA). As to the kind of experiment: Cell growth inhibition (CellTiter-Glo, 3 days) in HCC827-YVMA. As to conditions: 72 h, 3 days after administration. A digest of the protocol: as §2
The next test concerns A431 cells. As to the kind of experiment: Cell growth inhibition (CellTiter-Glo, 3 days) in A431. The conditions noted are these: Homo sapiens, A-431, 72 h, 3 days after administration. The procedure, abridged: as §1

One may read the GI50 as the concentration that inhibits growth by half. High values mean less potent growth inhibition, low ones more potent growth inhibition. Consider `C=CC(=O)N1CCC(Nc2cc3c(Nc4ccc(Oc5ccnc(N6CCC[C@@H](O)C6)c5)cc4F)ncnc3cc2OC)CC1` [Example 214, (R)-1-(4-((4-((2-fluoro-4-((2-(3-hydroxypiperidin-1-yl)pyridin-4-yl)oxy)phenyl)amino)-7-methoxyquinazolin-6-yl)amino)piperidin-1-yl)prop-2-en-1-one], for which the GI50 with HCC827 cells was 300 to 600 nM; in test [1] it was 30 to 60 nM; in test [2] it was < 30 nM; in test [3], < 30 nM; in the test with A431 cells, ≥ 1000 nM.
Consider `C=CC(=O)N1CCC(Nc2cc3c(Nc4ccc(Oc5ccnc(N6CCC[C@@H](N)C6)c5)cc4F)ncnc3cc2OC)CC1` [Example 217, (R)-1-(4-((4-((4-((2-(3-aminopiperidin-1-yl)pyridin-4-yl)oxy)-2-fluorophenyl)amino)-7-methoxyquinazolin-6-yl)amino)piperidin-1-yl)prop-2-en-1-one], for which the GI50 is ≥ 1000 nM with HCC827 cells; 300 to 600 nM in test [1]; 600 to 1000 nM in test [2]; 600 to 1000 nM in test [3]; ≥ 1000 nM in the test with A431 cells.
With `C=CC(=O)N1CCC(Nc2cc3c(Nc4ccc(Oc5ccnc(N6CCC(F)(F)CC6)c5)cc4F)ncnc3cc2OC)CC1` [Example 218, 1-(4-((4-((4-((2-(4,4-difluoropiperidin-1-yl)pyridin-4-yl)oxy)-2-fluorophenyl)amino)-7-methoxyquinazolin-6-yl)amino)piperidin-1-yl)prop-2-en-1-one], the GI50 is 100 to 300 nM in the test with HCC827 cells; 30 to 60 nM in test [1]; 30 to 60 nM in test [2]; 30 to 60 nM in test [3]; ≥ 1000 nM with A431 cells.
In the case of `C=CC(=O)N1CCC(Nc2cc3c(Nc4ccc(Oc5ccnc(N6CCCC(F)(F)C6)c5)cc4F)ncnc3cc2OC)CC1` [Example 219, 1-(4-((4-((4-((2-(3,3-difluoropiperidin-1-yl)pyridin-4-yl)oxy)-2-fluorophenyl)amino)-7-methoxyquinazolin-6-yl)amino)piperidin-1-yl)prop-2-en-1-one], the GI50 was 100 to 300 nM in the test with HCC827 cells; < 30 nM in test [1]; < 30 nM in test [2]; < 30 nM in test [3]; 300 to 600 nM with A431 cells.
With `C=CC(=O)N1CCC(Nc2cc3c(Nc4ccc(Oc5ccnc(N6CCCC(C)(O)C6)c5)cc4F)ncnc3cc2OC)CC1` (stereo not shown) [Example 220, 1-(4-((4-((2-fluoro-4-((2-(3-hydroxy-3-methylpiperidin-1-yl)pyridin-4-yl)oxy)phenyl)amino)-7-methoxyquinazolin-6-yl)amino)piperidin-1-yl)prop-2-en-1-one], the GI50 in the test on HCC827 cells was 100 to 300 nM; in test [1], < 30 nM; in test [2], < 30 nM; in test [3], < 30 nM; with A431 cells it was 600 to 1000 nM.
Regarding `C=CC(=O)N1CCC(Nc2cc3c(Nc4ccc(Oc5ccnc(N6CCCC(C#N)C6)c5)cc4F)ncnc3cc2OC)CC1` (stereo not shown) [Example 221, 1-(4-(4-((6-((1-acryloylpiperidin-4-yl)amino)-7-methoxyquinazolin-4-yl)amino)-3-fluorophenoxy)pyridin-2-yl)piperidine-3-carbonitrile], the GI50 is 100 to 300 nM with HCC827 cells; < 30 nM in test [1]; < 30 nM in test [2]; < 30 nM in test [3]; 100 to 300 nM with A431 cells.
As for `C=CC(=O)N1CCC(Nc2cc3c(Nc4ccc(Oc5ccnc(N6CCC[C@H](C)C6)c5)cc4F)ncnc3cc2OC)CC1` [Example 222, (S)-1-(4-((4-((2-fluoro-4-((2-(3-methylpiperidin-1-yl)pyridin-4-yl)oxy)phenyl)amino)-7-methoxyquinazolin-6-yl)amino)piperidin-1-yl)prop-2-en-1-one], the GI50 was 60 to 100 nM in the test on HCC827 cells; < 30 nM in test [1]; < 30 nM in test [2]; < 30 nM in test [3]; 600 to 1000 nM with A431 cells.
On to `C=CC(=O)N1CCC(Nc2cc3c(Nc4ccc(Oc5ccnc(N6CCN(C)C(=O)C6)c5)cc4F)ncnc3cc2OC)CC1` [Example 223, 4-(4-(4-((6-((1-acryloylpiperidin-4-yl)amino)-7-methoxyquinazolin-4-yl)amino)-3-fluorophenoxy)pyridin-2-yl)-1-methylpiperazin-2-one], for which the concentration for 50% growth inhibition (GI50) was 300 to 600 nM in the test on HCC827 cells; 100 to 300 nM in test [1]; 100 to 300 nM in test [2]; 100 to 300 nM in test [3]; 600 to 1000 nM in the test on A431 cells.
In the case of `C=CC(=O)N1CCC(Nc2cc3c(Nc4ccc(Oc5ccnc(N6CCN[C@H](C)C6)c5)cc4F)ncnc3cc2OC)CC1` [Example 224, (R)-1-(4-((4-((2-fluoro-4-((2-(3-methylpiperazin-1-yl)pyridin-4-yl)oxy)phenyl)amino)-7-methoxyquinazolin-6-yl)amino)piperidin-1-yl)prop-2-en-1-one], the GI50 in the test on HCC827 cells was ≥ 1000 nM; in test [1] it was 300 to 600 nM; in test [2], 600 to 1000 nM; in test [3] it was 600 to 1000 nM; in the test with A431 cells, ≥ 1000 nM.
Take `C=CC(=O)N1CCC(Nc2cc3c(Nc4ccc(Oc5ccnc(N6CCN[C@@H](C)C6)c5)cc4F)ncnc3cc2OC)CC1` [Example 225, (S)-1-(4-((4-((2-fluoro-4-((2-(3-methylpiperazin-1-yl)pyridin-4-yl)oxy)phenyl)amino)-7-methoxyquinazolin-6-yl)amino)piperidin-1-yl)prop-2-en-1-one]: the GI50 is ≥ 1000 nM in the test with HCC827 cells; 300 to 600 nM in test [1]; 300 to 600 nM in test [2]; 300 to 600 nM in test [3]; ≥ 1000 nM with A431 cells.
Regarding `C=CC(=O)N1CCC(Nc2cc3c(Nc4ccc(Oc5ccnc(N6CCNC(C)(C)C6)c5)cc4F)ncnc3cc2OC)CC1` [Example 226, 1-(4-((4-((4-((2-(3,3-dimethylpiperazin-1-yl)pyridin-4-yl)oxy)-2-fluorophenyl)amino)-7-methoxyquinazolin-6-yl)amino)piperidin-1-yl)prop-2-en-1-one], the GI50 was ≥ 1000 nM in the test with HCC827 cells; 300 to 600 nM in test [1]; ≥ 1000 nM in test [2]; ≥ 1000 nM in test [3]; ≥ 1000 nM in the test on A431 cells.
In the case of `C=CC(=O)N1CCC(Nc2cc3c(Nc4ccc(Oc5ccnc(N6CCC[C@@H](OC)C6)c5)c(Cl)c4)ncnc3cc2OC)CC1` [Example 227, (R)-1-(4-((4-((3-chloro-4-((2-(3-methoxypiperidin-1-yl)pyridin-4-yl)oxy)phenyl)amino)-7-methoxyquinazolin-6-yl)amino)piperidin-1-yl)prop-2-en-1-one], the concentration for 50% growth inhibition (GI50) with HCC827 cells was in the range of 100 to 300 nM; in test [1] it was 30 to 60 nM; in test [2], 60 to 100 nM; in test [3], 60 to 100 nM; in the test on A431 cells, 300 to 600 nM.
Regarding `C=CC(=O)N1CCC(Nc2cc3c(Nc4ccc(Oc5ccnc(N6CCN(C)CC6)c5)c(Cl)c4)ncnc3cc2OC)CC1` [Example 228, 1-(4-((4-((3-chloro-4-((2-(4-methylpiperazin-1-yl)pyridin-4-yl)oxy)phenyl)amino)-7-methoxyquinazolin-6-yl)amino)piperidin-1-yl)prop-2-en-1-one], the GI50 was 300 to 600 nM with HCC827 cells; 100 to 300 nM in test [1]; 60 to 100 nM in test [2]; 60 to 100 nM in test [3]; ≥ 1000 nM in the test with A431 cells.
Turning to `C=CC(=O)N1CCC(Nc2cc3c(Nc4ccc(Oc5ccnc(N6CCC(O)CC6)c5)c(Cl)c4)ncnc3cc2OC)CC1` [Example 229, 1-(4-((4-((3-chloro-4-((2-(4-hydroxypiperidin-1-yl)pyridin-4-yl)oxy)phenyl)amino)-7-methoxyquinazolin-6-yl)amino)piperidin-1-yl)prop-2-en-1-one], the concentration for 50% growth inhibition (GI50) lay within 100 to 300 nM with HCC827 cells; 60 to 100 nM in test [1]; 100 to 300 nM in test [2]; 100 to 300 nM in test [3]; 300 to 600 nM with A431 cells.
Turning to `C=CC(=O)N1CCC(Nc2cc3c(Nc4ccc(Oc5ccnc(N6CCC[C@@H](OC)C6)c5)cc4)ncnc3cc2OC)CC1` [Example 230, (R)-1-(4-((7-methoxy-4-((4-((2-(3-methoxypiperidin-1-yl)pyridin-4-yl)oxy)phenyl)amino)quinazolin-6-yl)amino)piperidin-1-yl)prop-2-en-1-one], the GI50 in the test with HCC827 cells is 300 to 600 nM; in test [1], 30 to 60 nM; in test [2] it was < 30 nM; in test [3], < 30 nM; in the test with A431 cells, ≥ 1000 nM.
Take `C=CC(=O)N1CCC(Nc2cc3c(Nc4ccc(Oc5ccnc(N6CCN(C)CC6)c5)cc4)ncnc3cc2OC)CC1` [Example 231, 1-(4-((7-methoxy-4-((4-((2-(4-methylpiperazin-1-yl)pyridin-4-yl)oxy)phenyl)amino)quinazolin-6-yl)amino)piperidin-1-yl)prop-2-en-1-one]: the GI50 is ≥ 1000 nM with HCC827 cells; 300 to 600 nM in test [1]; 100 to 300 nM in test [2]; 100 to 300 nM in test [3]; ≥ 1000 nM in the test on A431 cells.
Take `C=CC(=O)N1CCC(Nc2cc3c(Nc4ccc(Oc5ccnc(-c6cccc(C)c6)c5)cc4F)ncnc3cc2OC)CC1` [Example 234, 1-(4-((4-((2-fluoro-4-((2-(m-tolyl)pyridin-4-yl)oxy)phenyl)amino)-7-methoxyquinazolin-6-yl)amino)piperidin-1-yl)prop-2-en-1-one]: the GI50 with HCC827 cells was 60 to 100 nM; in test [1] it was 30 to 60 nM; in test [2], < 30 nM; in test [3] it was < 30 nM; with A431 cells it was 300 to 600 nM.
